Values of other authors as cited in US9662356B1, “Propolis-metal nanoparticle composition and methods of use” (Vets Plus, Inc., priority 2015, dated 2017).

System: otitis externa
Conditions: case history: treated previously over the course of the year

For polymyxin B, the “outcome of previous antibiotic treatment of otitis externa” value (from here on “outcome”) is given as “to no avail”.
In the case of neomycin, the “outcome” value is given as “to no avail”.
For `C[C@@H]1[C@H](O)[C@@H](C)/C=C/C=C/CC/C=C/C=C/C=C/C=C/C(O[C@H]2O[C@H](C)[C@@H](O)[C@H](N)[C@@H]2O)CC2O[C@](O)(CC(O)C(O)CCC(O)CC(O)CC(O)CC(=O)O[C@H]1C)CC(O)C2C(=O)O` (stereo partly drawn) [nystatin], the “outcome” value is given as “to no avail”.
